These results are taken from US20250230193A1, “CYCLIC COMPOUND HAVING SELECTIVE KRAS INHIBITORY EFFECT ON HRAS AND NRAS” (CHUGAI SEIYAKU KABUSHIKI KAISHA, priority 2022, published 2025).

Test [1] concerns the target GDP-bound HRAS wild-type protein (Homo sapiens, UniProt P01112). Kind of test: Binding to HRAS by surface plasmon resonance (SPR), Single Cycle Kinetics. The note with it: SPR, GDP-bound HRAS wild-type vs GDP-bound KRAS wild-type. (In general: In SPR one partner is held on a chip, and binding of the other changes the refractive index at the surface.)
Test [2] deals with GDP-bound NRAS wild-type protein (Homo sapiens, UniProt P01111). In words: Binding to NRAS by surface plasmon resonance (SPR), Single Cycle Kinetics. The note with it: SPR, GDP-bound NRAS wild-type vs GDP-bound KRAS wild-type.
Chain of GDP-bound NRAS wild-type protein (P01111 whole entry): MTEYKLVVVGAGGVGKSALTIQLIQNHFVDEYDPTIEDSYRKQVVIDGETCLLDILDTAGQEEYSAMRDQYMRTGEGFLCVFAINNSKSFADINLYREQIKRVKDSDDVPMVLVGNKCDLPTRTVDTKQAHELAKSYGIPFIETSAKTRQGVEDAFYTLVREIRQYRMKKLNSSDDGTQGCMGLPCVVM

Chain of GDP-bound HRAS wild-type protein (P01112 whole entry): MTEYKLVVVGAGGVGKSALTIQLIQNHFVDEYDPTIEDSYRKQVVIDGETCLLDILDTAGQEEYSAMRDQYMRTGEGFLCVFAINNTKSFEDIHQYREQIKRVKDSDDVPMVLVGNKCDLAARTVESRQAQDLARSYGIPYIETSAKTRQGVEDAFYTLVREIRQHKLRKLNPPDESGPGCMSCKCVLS

As for `CC[C@H](C)[C@@H]1NC(=O)[C@H](C2CCC2)N(C)C(=O)C[C@@H](C(=O)N(C)CC)N(C)C(=O)[C@H](C2CCCC2)N(C)C(=O)C2(CCC2)NC(=O)[C@@H]2C[C@H](C)CN2C(=O)[C@H](CCc2ccc(C(F)(F)F)c(OC)c2)NC(=O)CN(C)C(=O)[C@H](Cc2ccc(C(F)(F)F)cc2)N2CC/C=C\C[C@@H](C2=O)N(C)C(=O)CN(C)C1=O` [PP2071], the “HRAS/KRAS (ratio of KD value with respect to HRAS to KD value with respect to KRAS)” value in test [1] is “A (a compound having 10 or more and less than 20 is denoted as A)”. Besides, the “NRAS/KRAS (ratio of KD value with respect to NRAS to KD value with respect to KRAS)” value in test [2] was “A (a compound having 10 or more and less than 20 is denoted as A)”.

Turning to `CCCN(C)C(=O)[C@@H]1CC(=O)N(C)[C@@H](C2CCC2)C(=O)N[C@@H]([C@@H](C)CC)C(=O)N(C)CC(=O)N(C)[C@H]2C/C=C\CCN(C2=O)[C@@H](Cc2ccc(C(F)(F)F)cc2)C(=O)N(C)CC(=O)N[C@@H](CCc2ccc(C(F)(F)F)c(OC)c2)C(=O)N2C[C@@H](C)C[C@H]2C(=O)NC2(CCC2)C(=O)N(C)[C@@H](C2CCCC2)C(=O)N1C` [PP2072], the “HRAS/KRAS (ratio of KD value with respect to HRAS to KD value with respect to KRAS)” value in test [1] is “A (a compound having 10 or more and less than 20 is denoted as A)”. In test [2], the “NRAS/KRAS (ratio of KD value with respect to NRAS to KD value with respect to KRAS)” value was “A (a compound having 10 or more and less than 20 is denoted as A)”.

Consider `C#CC[C@H]1C(=O)N[C@@H]([C@@H](C)CC)C(=O)N(C)CC(=O)N(C)[C@H]2C/C=C\CCN(C2=O)[C@@H](Cc2ccc(C(F)(F)F)cc2)C(=O)N(C)CC(=O)N[C@@H](CCc2cc(F)c(C(F)(F)F)c(F)c2)C(=O)N2C[C@H](OCC)C[C@H]2C(=O)NC2(CC(C)(C)C2)C(=O)N(C)[C@@H](C2CCCC2)C(=O)N(C)[C@H](C(=O)N(C)CC)CC(=O)N1C` [PP2073], for which, in test [1], the “HRAS/KRAS (ratio of KD value with respect to HRAS to KD value with respect to KRAS)” value was “A (a compound having 10 or more and less than 20 is denoted as A)”. Moreover, the “NRAS/KRAS (ratio of KD value with respect to NRAS to KD value with respect to KRAS)” value in test [2] was “A (a compound having 10 or more and less than 20 is denoted as A)”.

Turning to `C#CC[C@H]1C(=O)N[C@@H]([C@@H](C)CC)C(=O)N(C)CC(=O)N(C)[C@H]2C/C=C\CCN(C2=O)[C@@H](Cc2ccc(C(F)(F)F)cc2)C(=O)N(C)CC(=O)N[C@@H](CCc2cc(F)c(C(F)(F)F)c(F)c2)C(=O)N2C[C@H](OCC)C[C@H]2C(=O)NC2(CC(C)(C)C2)C(=O)N(C)[C@@H](C2CCCC2)C(=O)N(C)[C@H](C(=O)N(C)CCC)CC(=O)N1C` [PP2074], the “HRAS/KRAS (ratio of KD value with respect to HRAS to KD value with respect to KRAS)” value in test [1] is “A (a compound having 10 or more and less than 20 is denoted as A)”. For the same molecule, in test [2], the “NRAS/KRAS (ratio of KD value with respect to NRAS to KD value with respect to KRAS)” value was “A (a compound having 10 or more and less than 20 is denoted as A)”.

Regarding `C#CC[C@H]1C(=O)N[C@@H]([C@@H](C)CC)C(=O)N(C)CC(=O)N(C)[C@H]2C/C=C\CCN(C2=O)[C@@H](Cc2ccc(C(F)(F)F)cc2)C(=O)N(C)CC(=O)N[C@@H](CCc2cc(F)c(C(F)(F)F)c(F)c2)C(=O)N2C[C@@H](C)C[C@H]2C(=O)NC2(CC(C)(C)C2)C(=O)N(C)[C@@H](C2CCCC2)C(=O)N(C)[C@H](C(=O)N(C)CC)CC(=O)N1C` [PP2075], in test [1], the “HRAS/KRAS (ratio of KD value with respect to HRAS to KD value with respect to KRAS)” value was “A (a compound having 10 or more and less than 20 is denoted as A)”. In test [2], the “NRAS/KRAS (ratio of KD value with respect to NRAS to KD value with respect to KRAS)” value is “A (a compound having 10 or more and less than 20 is denoted as A)”.

For the molecule `C#CC[C@H]1C(=O)N[C@@H]([C@@H](C)CC)C(=O)N(C)CC(=O)N(C)[C@H]2C/C=C\CCN(C2=O)[C@@H](Cc2ccc(C(F)(F)F)cc2)C(=O)N(C)CC(=O)N[C@@H](CCc2cc(F)c(C(F)(F)F)c(F)c2)C(=O)N2C[C@@H](C)C[C@H]2C(=O)NC2(CC(C)(C)C2)C(=O)N(C)[C@@H](C2CCCC2)C(=O)N(C)[C@H](C(=O)N(C)CCC)CC(=O)N1C` [PP2076], the “HRAS/KRAS (ratio of KD value with respect to HRAS to KD value with respect to KRAS)” value in test [1] is “A (a compound having 10 or more and less than 20 is denoted as A)”. Further, the “NRAS/KRAS (ratio of KD value with respect to NRAS to KD value with respect to KRAS)” value in test [2] is “A (a compound having 10 or more and less than 20 is denoted as A)”.

Regarding `C#CC[C@H]1C(=O)N[C@@H]([C@@H](C)CC)C(=O)N(C)CC(=O)N(C)[C@H]2C/C=C\CCN(C2=O)[C@@H](Cc2ccc(C(F)(F)F)cc2)C(=O)N(C)CC(=O)N[C@@H](CCc2cc(F)c(C(F)(F)F)c(F)c2)C(=O)N2C[C@@H](C)C[C@H]2C(=O)NC2(CCC2)C(=O)N(C)[C@@H](C2CCCC2)C(=O)N(C)[C@H](C(=O)N(C)CCC)CC(=O)N1C` [PP2077], in test [1], the “HRAS/KRAS (ratio of KD value with respect to HRAS to KD value with respect to KRAS)” value is “A (a compound having 10 or more and less than 20 is denoted as A)”. In addition, the “NRAS/KRAS (ratio of KD value with respect to NRAS to KD value with respect to KRAS)” value in test [2] is “A (a compound having 10 or more and less than 20 is denoted as A)”.

`CC[C@H](C)[C@@H]1NC(=O)[C@H](C(C)C)N(C)C(=O)C[C@@H](C(=O)N(C)CC)N(C)C(=O)[C@H](C2CCCC2)N(C)C(=O)C2(CCC2)NC(=O)[C@@H]2C[C@H](C)CN2C(=O)[C@H](CCc2cc(F)c(C(F)(F)F)c(F)c2)NC(=O)CN(C)C(=O)[C@H](Cc2ccc(C(F)(F)F)cc2)N2CC/C=C\C[C@@H](C2=O)N(C)C(=O)CN(C)C1=O` [PP2078]: the “HRAS/KRAS (ratio of KD value with respect to HRAS to KD value with respect to KRAS)” value in test [1] is “A (a compound having 10 or more and less than 20 is denoted as A)”. In test [2], the “NRAS/KRAS (ratio of KD value with respect to NRAS to KD value with respect to KRAS)” value was “AA (a compound having 20 or more is denoted as AA)”.

Take `CCCN(C)C(=O)[C@@H]1CC(=O)N(C)[C@@H](C(C)C)C(=O)N[C@@H]([C@@H](C)CC)C(=O)N(C)CC(=O)N(C)[C@H]2C/C=C\CCN(C2=O)[C@@H](Cc2ccc(C(F)(F)F)cc2)C(=O)N(C)CC(=O)N[C@@H](CCc2cc(F)c(C(F)(F)F)c(F)c2)C(=O)N2C[C@@H](C)C[C@H]2C(=O)NC2(CCC2)C(=O)N(C)[C@@H](C2CCCC2)C(=O)N1C` [PP2079]: in test [1], the “HRAS/KRAS (ratio of KD value with respect to HRAS to KD value with respect to KRAS)” value is “A (a compound having 10 or more and less than 20 is denoted as A)”. The “NRAS/KRAS (ratio of KD value with respect to NRAS to KD value with respect to KRAS)” value in test [2] was “A (a compound having 10 or more and less than 20 is denoted as A)”.

Turning to `CC[C@H](C)[C@@H]1NC(=O)[C@H](C2CC2)N(C)C(=O)C[C@@H](C(=O)N(C)CC)N(C)C(=O)[C@H](C2CCCC2)N(C)C(=O)C2(CCC2)NC(=O)[C@@H]2C[C@H](C)CN2C(=O)[C@H](CCc2cc(F)c(C(F)(F)F)c(F)c2)NC(=O)CN(C)C(=O)[C@H](Cc2ccc(C(F)(F)F)cc2)N2CC/C=C\C[C@@H](C2=O)N(C)C(=O)CN(C)C1=O` [PP2080], in test [1], the “HRAS/KRAS (ratio of KD value with respect to HRAS to KD value with respect to KRAS)” value was “A (a compound having 10 or more and less than 20 is denoted as A)”. For the same molecule, the “NRAS/KRAS (ratio of KD value with respect to NRAS to KD value with respect to KRAS)” value in test [2] is “A (a compound having 10 or more and less than 20 is denoted as A)”.

For `CCCN(C)C(=O)[C@@H]1CC(=O)N(C)[C@@H](C2CC2)C(=O)N[C@@H]([C@@H](C)CC)C(=O)N(C)CC(=O)N(C)[C@H]2C/C=C\CCN(C2=O)[C@@H](Cc2ccc(C(F)(F)F)cc2)C(=O)N(C)CC(=O)N[C@@H](CCc2cc(F)c(C(F)(F)F)c(F)c2)C(=O)N2C[C@@H](C)C[C@H]2C(=O)NC2(CCC2)C(=O)N(C)[C@@H](C2CCCC2)C(=O)N1C` [PP2081], the “HRAS/KRAS (ratio of KD value with respect to HRAS to KD value with respect to KRAS)” value in test [1] is “A (a compound having 10 or more and less than 20 is denoted as A)”. Besides, in test [2], the “NRAS/KRAS (ratio of KD value with respect to NRAS to KD value with respect to KRAS)” value is “A (a compound having 10 or more and less than 20 is denoted as A)”.

`CC[C@H](C)[C@@H]1NC(=O)[C@H](C2CCC2)N(C)C(=O)C[C@@H](C(=O)N(C)CC)N(C)C(=O)[C@H](C2CCCC2)N(C)C(=O)C2(CCC2)NC(=O)[C@@H]2C[C@H](C)CN2C(=O)[C@H](CCc2cc(F)c(C(F)(F)F)c(F)c2)NC(=O)CN(C)C(=O)[C@H](Cc2ccc(C(F)(F)F)cc2)N2CC/C=C\C[C@@H](C2=O)N(C)C(=O)CN(C)C1=O` [PP2082]: the “HRAS/KRAS (ratio of KD value with respect to HRAS to KD value with respect to KRAS)” value in test [1] is “A (a compound having 10 or more and less than 20 is denoted as A)”. In addition, the “NRAS/KRAS (ratio of KD value with respect to NRAS to KD value with respect to KRAS)” value in test [2] is “AA (a compound having 20 or more is denoted as AA)”.

With `CCCN(C)C(=O)[C@@H]1CC(=O)N(C)[C@@H](C2CCC2)C(=O)N[C@@H]([C@@H](C)CC)C(=O)N(C)CC(=O)N(C)[C@H]2C/C=C\CCN(C2=O)[C@@H](Cc2ccc(C(F)(F)F)cc2)C(=O)N(C)CC(=O)N[C@@H](CCc2cc(F)c(C(F)(F)F)c(F)c2)C(=O)N2C[C@@H](C)C[C@H]2C(=O)NC2(CCC2)C(=O)N(C)[C@@H](C2CCCC2)C(=O)N1C` [PP2083], in test [1], the “HRAS/KRAS (ratio of KD value with respect to HRAS to KD value with respect to KRAS)” value is “B (a compound having 3 or more and less than 10 is denoted as B)”. Besides, in test [2], the “NRAS/KRAS (ratio of KD value with respect to NRAS to KD value with respect to KRAS)” value was “A (a compound having 10 or more and less than 20 is denoted as A)”.

With `C#CCN1CC(=O)N(C)[C@H]2C/C=C\CCN(C2=O)[C@@H](Cc2ccc(C(F)(F)F)cc2)C(=O)N(C)CC(=O)N[C@@H](CCc2cc(F)c(C(F)(F)F)c(F)c2)C(=O)N2C[C@H](OCC)C[C@H]2C(=O)NC2(CC(C)(C)C2)C(=O)N(C)[C@@H](C2CCCC2)C(=O)N(C)[C@H](C(=O)N(C)C)CC(=O)N(C)[C@@H](CC)C(=O)N[C@@H]([C@@H](C)CC)C1=O` [PP2087], the “HRAS/KRAS (ratio of KD value with respect to HRAS to KD value with respect to KRAS)” value in test [1] is “A (a compound having 10 or more and less than 20 is denoted as A)”. Moreover, the “NRAS/KRAS (ratio of KD value with respect to NRAS to KD value with respect to KRAS)” value in test [2] was “A (a compound having 10 or more and less than 20 is denoted as A)”.

As for `C#CCN1CC(=O)N(C)[C@H]2C/C=C\CCN(C2=O)[C@@H](Cc2ccc(C(F)(F)F)cc2)C(=O)N(C)CC(=O)N[C@@H](CCc2ccc(C(F)(F)F)c(OC)c2)C(=O)N2C[C@H](OCC)C[C@H]2C(=O)NC2(CC(C)(C)C2)C(=O)N(C)[C@@H](C2CCCC2)C(=O)N(C)[C@H](C(=O)N(C)C)CC(=O)N(C)[C@@H](CC)C(=O)N[C@@H]([C@@H](C)CC)C1=O` [PP2091], the “HRAS/KRAS (ratio of KD value with respect to HRAS to KD value with respect to KRAS)” value in test [1] was “B (a compound having 3 or more and less than 10 is denoted as B)”. Moreover, the “NRAS/KRAS (ratio of KD value with respect to NRAS to KD value with respect to KRAS)” value in test [2] is “A (a compound having 10 or more and less than 20 is denoted as A)”.
